# Reference: patent US20130252950A1, “TARGETING MTOR SUBSTRATES IN TREATING PROLIFERATIVE DISEASES” (President and Fellows of Harvard College, priority 2010, published 2013)
# “And” between values parts separate entries of the source, which are not always exact repeats. Identical values can stand only once.
# System: TSC2−/− MEFs
# Assay: Rapamycin screen: SILAC quantitative phosphoproteomics (two biological replicates)
# Assay type: cell-based, mouse
# Method: Two sets of large-scale, quantitative phospho-proteomics experiments were performed to fully define how mTOR-containing complexes signal to downstream effectors (FIG. 1A). The first SILAC experiment (rapamycin screen) was performed using growth factor-deprived TSC2−/− mouse embryonic fibroblasts (MEFs).
# Two populations of TSC2−/− cells were grown in parallel, one in conventional media (“light”) and the other in media containing [^13C6^15N2]lysine and [^13C6^15N4]arginine (“heavy”) (FIG. 1A and Table 5). […] We performed two biological replicates of this experimental design with cross-labeling (swapping the labeled state of the rapamycin-treated cells, Table 5), from which a total of 14,635 (FDR=0.25%) and 32,500 (FDR=0.28%) phosphopeptides were identified, respectively. These corresponded to identification of at least 4,484 and 6,832 unique phosphorylation sites on 1,615 and 1,866 proteins, respectively. The quantitation was highly accurate (Table 5) with 93.7% of the phosphoproteome changing less than 50% in abundance between the rapamycin-treated (light) and control (heavy) cells (second biological replicate experiment, Median Log2(H/L)=−0.02 and standard deviation Log2(H/L)=0.53, FIG. 1A). […] Note that the Rapamycin screen includes two biological replicates.
# Using this criteria, several hundred peptides (corresponding to 148 and 85 proteins respectively, in the two biological replicates, Table 11) were determined to contain rapamycin-sensitive phosphorylation sites. […] Note that there are two biological replicate experiments for the rapamycin screen (“Table 11 Rapa Replicate 1,” and “Table 11 Rapa Replicate 2,” respectively) and one Ku-0063749 replicate (“Table 11 Ku”). Treatment for the light and heavy cells in each experiment is described in FIG. 1C. We observed a similar distribution for the phosphopeptides in the […] biological replicate experiment and found 85 proteins (Table 11) that carried rapamycin-sensitive phosphorylation sites.
# The analysis identified 4,484 and 6,832 unique phosphorylation sites on 1,615 and 1,866 proteins from two biological replicate experiments, respectively, and achieved a high level of accuracy in quantitation (Table 5). […] A representative identification of the known rapamycin-sensitive phosphorylation sites on ribosomal protein S6 is shown in FIG. 1B.
# TSC2−/− MEFs were used in the rapamycin screen due to constitutive hyperactivation of mTORC1 signaling in this cell line. Cells were grown in light ([^12C6^14N2]Lys, [^12C6^14N4]Arg) and heavy ([^13C6^15N2]Lys, [^13C6^15N4]Arg) DMEM (Cambridge Isotope Labs), respectively. Both light and heavy DMEM were supplemented with 10% dialyzed FBS (Invitrogen). Cells were serum-deprived for 17 hours and cells were cultured inheavy media were treated with 20 nM rapamycin for two hours. We performed two biological replicates of this experimental design with cross-labeling (swapping the labeled state of the rapamycin-treated cells).
# [1] = downregulated phosphorylation, TSC2−/− MEFs, 20 nM rapamycin 2 h vs DMSO, second biological replicate
compound,measurement,setting,value
CO[C@H]1C[C@@H]2CC[C@@H](C)[C@@](O)(O2)C(=O)C(=O)N2CCCC[C@H]2C(=O)O[C@H]([C@H](C)C[C@@H]2CC[C@@H](O)[C@H](OC)C2)CC(=O)[C@H](C)/C=C(\C)[C@@H](O)[C@@H](OC)C(=O)[C@H](C)C[C@H](C)/C=C/C=C/C=C/1C [rapamycin],Log2 Area (H/L) Ratio,"Ahctf1 phosphopeptide NGVSLFNS*PKTEQPSPVVHSFPHPELPEAFVGTPISNTSQR, SEQ ID NO: 1120, rapamycin screen",1.0661
same,Log2 Area (H/L) Ratio,"Ahctf1 phosphopeptide NGVSLFNSPK@T*EQPSPVVHSFPHPELPEAFVGTPISNTSQR^, SEQ ID NO: 1119, rapamycin screen",1.0661
same,Log2 Area (H/L) Ratio,"Ahctf1 phosphopeptide NGVSLFNSPK@TEQPSPVVHS*FPHPELPEAFVGTPISNTSQR^, SEQ ID NO: 1121, rapamycin screen",1.0661
same,Log2 Area (H/L) Ratio,"Ahnak phosphopeptide S*NS*FSDERAEFSAPSTPTGTLEFAGGDAK@, SEQ ID NO: 1147, rapamycin screen",1.0143
same,Log2 Area (H/L) Ratio,"Ahnak phosphopeptide S*NS*FSDEREFSAPSTPTGTLEFAGGDAK, SEQ ID NO: 1148, rapamycin screen",1.0143
same,Log2 Area (H/L) Ratio,"Ahnak phosphopeptide S*NS*FSDEREFSAPSTPTGTLEFAGGDAK, SEQ ID NO: 1149, rapamycin screen",1.0143
same,Log2 Area (H/L) Ratio,"Arhgap17 phosphopeptide LGEQGPEPGPT*PPQT*PT*PPST*PPLAK, SEQ ID NO: 1124, rapamycin screen",1.0618
same,Log2 Area (H/L) Ratio,"Arid1a phosphopeptide GPS*PSPVGS*PASVAQSR^, SEQ ID NO: 1151, rapamycin screen",1.0107
same,Log2 Area (H/L) Ratio,"Atxn2 phosphopeptide TS*PAGGTWSSVVSGVPR, SEQ ID NO: 1157, rapamycin screen",1.0015
same,Log2 Area (H/L) Ratio,"Atxn2 phosphopeptide TS*PAGGTWSSVVSGVPR^, SEQ ID NO: 1156, rapamycin screen",1.0015
same,Log2 Area (H/L) Ratio,"Azi1 phosphopeptide ANNAGASIYPTGPADPCPPASES*S*PEQWQSPEDKPQDIHSQGEAR, SEQ ID NO: 1138, rapamycin screen",1.0268
same,Log2 Area (H/L) Ratio,"Dlg5 phosphopeptide SS*SHLDPAATPHSTLQGSSAGTPEHPSVIDPLMEQDEGPGTPPAK@, SEQ ID NO: 1129, rapamycin screen",1.0498
same,Log2 Area (H/L) Ratio,"Eif4ebp1 phosphopeptide NS*PVAK@T*PPK@DLPAIPGVTSPTSDEPPM#QASQSQLPSSPEDK@, SEQ ID NO: 1143, rapamycin screen",1.0227
same,Log2 Area (H/L) Ratio,"Eif4ebp1 phosphopeptide NS*PVAKT*PPKDLPAIPGVTSPT*SDEPPMQASQSQLPSS*PEDK, SEQ ID NO: 1150, rapamycin screen",1.0129
same,Log2 Area (H/L) Ratio,"Eif4ebp2 phosphopeptide TVAISDAAQLPQDYCTT*PGGTLFSTT*PGGTRIIYDR, SEQ ID NO: 1137, rapamycin screen",1.0271
same,Log2 Area (H/L) Ratio,"Eif4ebp2 phosphopeptide TVAISDAAQLPQDYCTT*PGGTLFSTT*PGGTR^IIYDR^, SEQ ID NO: 1136, rapamycin screen",1.0271
same,Log2 Area (H/L) Ratio,"Erbb2ip phosphopeptide VGS*EHSLLDPPGK, SEQ ID NO: 1135, rapamycin screen",1.0307
same,Log2 Area (H/L) Ratio,"Erf phosphopeptide FPPST*PSEVLS*PTEDPRS*PPACSSSSSSLFSAVVAR, SEQ ID NO: 1154, rapamycin screen",1.0039
same,Log2 Area (H/L) Ratio,"Fam129a phosphopeptide HNLFEDNM#ALPSESVSS*LTDLK, SEQ ID NO: 1142, rapamycin screen",1.0232
same,Log2 Area (H/L) Ratio,"Fam129a phosphopeptide HNLFEDNMALPSES*VSSLTDLK@TAMGS*NQAS*PAR^R^, SEQ ID NO: 1152, rapamycin screen",1.0048
same,Log2 Area (H/L) Ratio,"Fam129a phosphopeptide HNLFEDNMALPSESVSSLT*DLK@TAMGS*NQAS*PAR^R^, SEQ ID NO: 1153, rapamycin screen",1.0048
same,Log2 Area (H/L) Ratio,"Hells phosphopeptide S*INYSELDQFPSELEK, SEQ ID NO: 1132, rapamycin screen",1.0332
same,Log2 Area (H/L) Ratio,"Hells phosphopeptide S*INYSELDQFPSELEK@, SEQ ID NO: 1133, rapamycin screen",1.0332
same,Log2 Area (H/L) Ratio,"Hells phosphopeptide S*INYSELDQFPSELEK@, SEQ ID NO: 1134, rapamycin screen",1.0332
same,Log2 Area (H/L) Ratio,"Ncaph2 phosphopeptide NGS*PVPVPDIS*QEPDGPALSGGEEDAEDGAEPLEVALEPAEPR^, SEQ ID NO: 1127, rapamycin screen",1.0598
same,Log2 Area (H/L) Ratio,"Ncaph2 phosphopeptide NGS*PVPVPDISQEPDGPALS*GGEEDAEDGAEPLEVALEPAEPR, SEQ ID NO: 1126, rapamycin screen",1.0598
same,Log2 Area (H/L) Ratio,"Ncaph2 phosphopeptide NGS*PVPVPDISQEPDGPALS*GGEEDAEDGAEPLEVALEPAEPR^, SEQ ID NO: 1125, rapamycin screen",1.0598
same,Log2 Area (H/L) Ratio,"Pbx1 phosphopeptide TAVTATNVSAHGSQANS*PSTPNSAGGY*PSPCYQPDR^R^, SEQ ID NO: 1128, rapamycin screen",1.054
same,Log2 Area (H/L) Ratio,"Pds5b phosphopeptide AES*PETSAVESTQST*PQK, SEQ ID NO: 1141, rapamycin screen",1.0246
same,Log2 Area (H/L) Ratio,"Pds5b phosphopeptide AES*PETSAVESTQST*PQK@, SEQ ID NO: 1139, rapamycin screen",1.0246
same,Log2 Area (H/L) Ratio,"Pds5b phosphopeptide AES*PETSAVESTQST*PQK@, SEQ ID NO: 1140, rapamycin screen",1.0246
same,Log2 Area (H/L) Ratio,"Phldb1 phosphopeptide WAAHGTS*PEDFSLTLGAR^, SEQ ID NO: 1118, rapamycin screen",1.068
same,Log2 Area (H/L) Ratio,"Ranbp10 phosphopeptide SQDS*YPGS*PSLSPR, SEQ ID NO: 1161, rapamycin screen",1.0009
same,Log2 Area (H/L) Ratio,"Ranbp10 phosphopeptide SQDSYPGS*PSLS*PR, SEQ ID NO: 1158, rapamycin screen",1.0009
same,Log2 Area (H/L) Ratio,"Ranbp10 phosphopeptide SQDSYPGS*PSLS*PR^, SEQ ID NO: 1159, rapamycin screen",1.0009
same,Log2 Area (H/L) Ratio,"Ranbp10 phosphopeptide SQDSYPGS*PSLS*PR^, SEQ ID NO: 1160, rapamycin screen",1.0009
same,Log2 Area (H/L) Ratio,"Ranbp10 phosphopeptide SQDSYPGS*PSLS*PR^, SEQ ID NO: 1162, rapamycin screen",1.0009
same,Log2 Area (H/L) Ratio,"Rb1 phosphopeptide DGEGPDNLEPACPLSLPLQGNHTAADMYLS*PLRS*PK, SEQ ID NO: 1123, rapamycin screen",1.0618
same,Log2 Area (H/L) Ratio,"Rb1 phosphopeptide DGEGPDNLEPACPLSLPLQGNHTAADMYLS*PLR^S*PK@, SEQ ID NO: 1122, rapamycin screen",1.0618
same,Log2 Area (H/L) Ratio,"Samhd1 phosphopeptide CDGS*PR^T*PPS*TPPATANLSADDDFQNTDLR^, SEQ ID NO: 1155, rapamycin screen",1.0027
same,Log2 Area (H/L) Ratio,"Shroom2 phosphopeptide SRS*S*PSTDHYSQEVPVEPNR, SEQ ID NO: 1144, rapamycin screen",1.0176
same,Log2 Area (H/L) Ratio,"Shroom2 phosphopeptide SRS*S*PSTDHYSQEVPVEPNR, SEQ ID NO: 1145, rapamycin screen",1.0176
same,Log2 Area (H/L) Ratio,"Shroom2 phosphopeptide SR^S*S*PSTDHYSQEVPVEPNR^, SEQ ID NO: 1146, rapamycin screen",1.0176
same,Log2 Area (H/L) Ratio,"Tox4 phosphopeptide LSTTPS*PTNS*LHEDGVDDFRR, SEQ ID NO: 1130, rapamycin screen",1.0342
same,Log2 Area (H/L) Ratio,"Tox4 phosphopeptide LSTTPS*PTNS*LHEDGVDDFRR, SEQ ID NO: 1164, rapamycin screen",1.0005
same,Log2 Area (H/L) Ratio,"Tox4 phosphopeptide LSTTPS*PTNS*LHEDGVDDFR^R^, SEQ ID NO: 1131, rapamycin screen",1.0342
same,Log2 Area (H/L) Ratio,"Tox4 phosphopeptide LSTTPS*PTNS*LHEDGVDDFR^R^, SEQ ID NO: 1163, rapamycin screen",1.0005
same,"Median (treated/ctrl) fold-change of phosphopeptide Eif4ebp1 S64, T69",[1],2.8 fold
same,"Median (treated/ctrl) fold-change of phosphopeptide Eif4ebp2 S65, T70",[1],39.1 fold
same,"Median (treated/ctrl) fold-change of phosphopeptide Eif4ebp2 T37, T46",[1],2.3 fold
same,"Median (treated/ctrl) fold-change of phosphopeptide LSSLRAS*TS*KSES*S*QK, RPS6 S240, S242, S246, S247",[1],4.5 fold
same,"Median (treated/ctrl) fold-change of phosphopeptide MNILSS*QS*PLHPSTLNAVIHR, Grb10 S421, S423 (isoform 3; S501/S503 in isoform 1)",[1],more than 27 fold and 27.3 fold
same,"Median (treated/ctrl) fold-change of phosphopeptide RLS*S*LRASTSK, RPS6 S235, S236",[1],30.5 fold
same,"Median (treated/ctrl) fold-change of phosphopeptide Rps6kb1 S441, T444, S447",[1],2.8 fold
same,"Median (treated/ctrl) fold-change of phosphopeptide S*LPVSVPVWAFK, Akt1s1 S184",[1],2.2 fold
same,"Median (treated/ctrl) fold-change of phosphopeptide SFS*KEVEER, Eif4g1 S1189",[1],2.8 fold
same,"Median (treated/ctrl) fold-change of phosphopeptide SRT*GS*ESSQTGASATSGR, Eif4b T420, S422",[1],4.3 fold
same,"Median (treated/ctrl) fold-change of phosphopeptide TGS*ESS*QTGASATSGR, Eif4b S422, S425",[1],4.6 fold
same,"Median (treated/ctrl) fold-change of phosphopeptide TTS*FAESCKPVQQPSAFGSMK, Gsk3β S9",[1],approximately 3.3 fold and 3.3 fold
same,"Median (treated/ctrl) fold-change of phosphopeptide ULK1 S747, S757, T763",[1],4 fold and 4.1 fold
same,"Median (treated/ctrl) fold-change of triply phosphorylated Grb10 peptide T76, S96, S104",[1],5.4 fold
same,decrease of 4EBP1 T36/T45 phosphorylation after rapamycin treatment,rapamycin screen,20%
